How the values were obtained:
[1] = target: T1, ACAT derived from human macrophage (Homo sapiens, UniProt P35610); assay: Inhibitory activity against ACAT derived from human macrophage (microsomes of TPA-differentiated U937 cells); assay type: biochemical; conditions: for Selectivity: Table 1, rat liver ACAT IC50 / human macrophage ACAT IC50; for IC50: human macrophage (U937/TPA) microsome, pH 7.4, 37° C., 30 minutes; for selectivity (times greater, human macrophage ACAT vs rat liver ACAT): linoleoylamide derivatives
T1 construct: Using, as an enzyme source, microsomal fractions prepared in the manner described below under Preparation of Microsome from U937 cells; endogenous in cells; host or cells: U937 cells differentiated with TPA, microsomal fraction
T1 sequence (P35610 1-550): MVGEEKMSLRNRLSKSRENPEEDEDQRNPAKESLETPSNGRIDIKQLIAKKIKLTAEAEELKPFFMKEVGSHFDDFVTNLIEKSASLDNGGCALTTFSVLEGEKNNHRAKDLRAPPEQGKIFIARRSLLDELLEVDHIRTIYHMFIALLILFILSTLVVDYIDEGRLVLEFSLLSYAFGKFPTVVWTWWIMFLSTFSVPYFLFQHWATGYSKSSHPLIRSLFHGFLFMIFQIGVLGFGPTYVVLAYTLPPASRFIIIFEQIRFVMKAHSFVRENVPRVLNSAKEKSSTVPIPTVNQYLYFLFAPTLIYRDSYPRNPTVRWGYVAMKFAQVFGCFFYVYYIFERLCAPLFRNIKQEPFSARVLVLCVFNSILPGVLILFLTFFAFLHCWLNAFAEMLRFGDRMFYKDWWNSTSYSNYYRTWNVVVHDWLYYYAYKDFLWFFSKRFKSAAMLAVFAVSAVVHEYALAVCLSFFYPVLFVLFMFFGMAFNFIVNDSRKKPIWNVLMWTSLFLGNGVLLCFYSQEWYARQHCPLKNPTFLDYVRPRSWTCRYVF
Description: Inhibitory activity against ACAT derived from human macrophage
(§1) Using, as an enzyme source, microsomal fractions prepared in the manner described below under Preparation of Microsome from U937 cells [human monocyte-derived cells known to differentiate into macrophages by the addition of TPA (12-O-tetradecanoylphorbol 13-acetate)] differentiated with TPA, the inhibitory activity against ACAT in the microsome fractions was determined as in the following. The compound of the present invention was dissolved in dimethyl sulfoxide and used as a sample solution. [1-^14 C] […] Ethanol (1 ml) was added to stop the reaction, and n-hexane (4.5 ml) was added. The reaction mixture was centrifuged at 2,000 rpm for 2 minutes and the upper n-hexane layer was separated and recovered, whereby cholesterol oleate (reaction product) was extracted. n-Hexane was evaporated with a nitrogen gas and the residue was re-dissolved in n-hexane (50 μl), which was used as a sample for thin-layer chromatography. […] After developing, the spot of cholesterol oleate was colored with iodine. The spot was cut out and dissolved in a xylene scintillator (Aquasol-2, Daiichi Pure Chemicals Co., Ltd.). The amount of cholesterol oleate was determined with a liquid scintillation counter.
The cells thus scraped and the culture solution were centrifuged at 3,000 rpm for 5 minutes, and the cell fractions obtained as precipitate were once freezed at -70° C. and preserved. The cells preserved at -70° C. were thawed and homogenized at 4° C. in a Teflon homogenizer. The homogenate was centrifuged at 12,000 g for 15 minutes. The precipitate fractions containing nuclea and mitochondria were removed and the obtained supernatant was further centrifuged at 100,000 g for 60 minutes. The supernatant was discarded, and the obtained precipitate fractions were suspended in 150 mM potassium phosphate buffer (pH 7.4) and used as a microsomal fraction.

[2] = system: ACAT derived from rat liver; assay: Inhibitory activity against ACAT derived from rat liver microsome; assay type: biochemical; conditions: pH 7.4, 37° C., 30 minutes
Description: Inhibitory activity against ACAT derived from rat liver microsome
as §1, with “source, the” for “source,”, “prepared from rat liver” for “prepared”, “of Microsome,” for “of Microsome from U937 cells [human monocyte-derived cells known to differentiate into macrophages by the addition of TPA (12-O-tetradecanoylphorbol 13-acetate)] differentiated with TPA,”, “re-dissolved dissolved” for “re-dissolved”, “determined using” for “determined with”
The liver was removed from a fasted rat and thoroughly perfused with 0.25M sucrose solution. The liver was weighed, minced with scissors or razor and placed in a Teflon homogenizer. The liver was homogenized with 9 volumes [9 ml per g (wet weight) of liver] of 0.25M sucrose solution or 50 mM Tris-HCl buffer (pH 7.5) containing 0.25M sucrose and 5 mM MgCl2. The homogenate was centrifuged at 8,000-10,000 g for 10-15 minutes. The obtained supernatant was centrifuged at 105,000 g for 60-90 minutes. The sediment obtained from this centrifugation was suspended in 150 mM potassium phosphate buffer (pH 7.4) to give a microsomal fraction.

[3] = Reduction of cholesterol in blood of cholesterol-loaded rats; assay type: in vivo, Male slc:SD (SPF) rats; conditions: serum total cholesterol; 90 mg/kg/day orally, five days; average of 8 rats; control taken as 100%
Source text: Reduction of cholesterol in blood of rats
Male slc:SD (SPF) rats (4 weeks of age weighing 70-90 g, Japan SLC Inc.) were randomly divided into 8 per group and bred for 3 days on a normal diet (solid diet for test animals, MF, manufactured by Oriental Yeast CO., LTD.). Then, the aforementioned diet supplemented with 5% cholesterol, 10% olive oil and 0.5% cholic acid was freely fed for 10 days. During the last five days, the test compound (Compounds 3-6, 8, 11 and 12) suspended in 0.5% aqueous methylcellulose solution was forcibly administered orally once a day in a dose of 10 ml/kg which contains 90 mg/kg/day of the test compound (total dose of the test compound being 450 mg/kg). The rats were fasted for 16 hours after the final administration and etherized. The blood was taken from the abdominal aorta, and serum was separated by centrifugation to determine the total cholesterol content in the serum. The control group was administered with 0.5% aqueous methylcellulose solution instead of the test compound suspended in 0.5% aqueous methylcellulose solution.
* is an average of 8 rats per group based on the cholesterol content in
blood of control which was taken as 100%.

| Selectivity [1] | IC50 [1] | IC50 [2] | selectivity (times greater, human macrophage ACAT vs rat liver ACAT) [1] | ACAT inhibitory activity (in words) ([1]; human macrophage ACAT) | Structure (SMILES) | Reduction of cholesterol in cholesterol-loaded rats, %* [3] |
| --- | --- | --- | --- | --- | --- | --- |
| >75.3 | 6.64 µM | > 500 µM | – | – | CCC=CCC=CCC=CCC=CCC=CCCCC(=O)NCc1ccc(NC(=O)Nc2c(C(C)C)cccc2C(C)C)cc1 [Compound 21, N-{4-(5,8,11,14,17-eicosapentaenoylaminomethyl)phenyl}-N'-(2,6-diisopropylphenyl)urea] | – |
| >27.9 | 17.9 µM | > 500 µM | – | – | CCC=CCC=CCC=CCC=CCC=CCC=CCCC(=O)NCc1ccc(NC(=O)Nc2c(C(C)C)cccc2C(C)C)cc1 [Compound 22, N-{4-(4,7,10,13,16,19-docosahexaenoylaminomethyl)phenyl}-N'-(2,6-diisopropylphenyl)urea] | – |
| > 746 | 0.67 µM | > 500 µM | – | – | CCC=CCC=CCC=CCC=CCC=CCCCC(=O)NCCNC(=O)Nc1c(C(C)C)cccc1C(C)C [Compound 13, N-(5,8,11,14,17-eicosapentaenoyl)-N'-(2,6-diisopropylanilinocarbonyl)ethylenediamine] | – |
| 40.6 | 0.5 µM | 20.3 µM | – | – | CCC=CCC=CCC=CCC=CCC=CCC=CCCC(=O)Nc1c(OC)cc(OC)cc1OC [Compound 2, N-(2,4,6-trimethoxyphenyl)-4,7,10,13,16,19-docosahexaenamide] | – |
| – | 0.006 µM | 0.09 µM | about fifteen times | – | CCCCC/C=C\C/C=C\CCCCCCCC(=O)Nc1c(C(C)C)cccc1C(C)C [reference compound] | – |
| – | 0.67 µM | 0.87 µM | scarce selectivity | – | CCCCC/C=C\C/C=C\CCCCCCCC(=O)Nc1c(OC)cc(OC)cc1OC [reference compound] | – |
| – | 0.07 µM | 0.14 µM | about twice | – | CCCCCC=CCC=CCCCCCCCC(=O)Nc1c(C)cccc1C [reference compound] | – |
| > 725 | 0.69 µM | > 500 µM | – | – | CCC=CCC=CCC=CCC=CCC=CCC=CCCC(=O)N1CCN(C(=O)Nc2c(C(C)C)cccc2C(C)C)CC1 [Compound 16, N-(4,7,10,13,16,19-docosahexaenoyl)-N'-(2,6-diisopropylanilinocarbonyl)piperazine] | – |
| > 269 | 1.86 µM | > 500 µM | – | – | CCC=CCC=CCC=CCC=CCC=CCCCC(=O)NC1CCCCC1NC(=O)Nc1c(C(C)C)cccc1C(C)C (centres unmarked) [Compound 17, N-(5,8,11,14,17-eocosapentaenoyl)-N'-(2,6-diisopropylanilinocarbonyl)-1,2-diaminocyclohexane] | – |
| – | 4.61 µM | ≥ 500 µM | – | low activity | CCCCC/C=C\C/C=C\CCCCCCCC(=O)N1CCN(C(=O)Nc2c(C(C)C)cccc2C(C)C)CC1 [reference compound] | – |
| > 111 | 4.52 µM | > 500 µM | – | – | CCC=CCC=CCC=CCC=CCC=CCC=CCCC(=O)NCCNC(=O)Nc1c(C(C)C)cccc1C(C)C [Compound 14, N-(4,7,10,13,16,19-docosahexaenoyl)-N'-(2,6-diisopropylanilinocarbonyl)ethylenediamine] | – |
| 395 | 0.029 µM | 11.5 µM | – | – | CCC=CCC=CCC=CCC=CCC=CCC=CCCC(=O)Nc1c(CC)cccc1CC [Compound 10, N-(2,6-diethylphenyl)-4,7,10,13,16,19-docosahexaenamide] | – |
| – | 0.02 µM | 0.1 µM | about five times | – | CCCCC/C=C\C/C=C\CCCCCCCC(=O)Nc1c(CC)cccc1CC [reference compound] | – |
| > 3333 | 0.15 µM | > 500 µM | – | – | CCC=CCC=CCC=CCC=CCC=CCCCC(=O)Nc1ccc(CNC(=O)Nc2c(C(C)C)cccc2C(C)C)cc1 [Compound 19, N-{4-(5,8,11,14,17-eicosapentaenoylamino)phenylmethyl}-N'-(2,6-diisopropylphenyl)urea] | – |
| 18.4 | 1.1 µM | 20.2 µM | – | – | CCC=CCC=CCC=CCC=CCC=CCC=CCCC(=O)Nc1ccc(CNC(=O)Nc2c(C(C)C)cccc2C(C)C)cc1 [Compound 20, N-{4-(4,7,10,13,16,19-docosahexaenoylamino)phenylmethyl}-N'-(2,6-diisopropylphenyl)urea] | – |
| > 463 | 1.08 µM | > 500 µM | – | – | CCC=CCC=CCC=CCC=CCC=CCCCC(=O)N1CCN(C(=O)Nc2c(C(C)C)cccc2C(C)C)CC1 [Compound 15, N-(5,8,11,14,17-eicosapentaenoyl)-N'-(2,6-diisopropylanilinocarbonyl)piperazine] | – |
| > 190 | 2.63 µM | > 500 µM | – | – | CCC=CCC=CCC=CCC=CCC=CCC=CCCC(=O)NC1CCCCC1NC(=O)Nc1c(C(C)C)cccc1C(C)C (centres unmarked) [Compound 18, N-(4,7,10,13,16,19-docosahexaenoyl)-N'-(2,6-diisopropylanilinocarbonyl)-1,2-diaminocyclohexane] | – |

| Structure (SMILES) | Selectivity [1] | IC50 [1] | IC50 [2] | selectivity (times greater, human macrophage ACAT vs rat liver ACAT) [1] | ACAT inhibitory activity (in words) ([1]; human macrophage ACAT) | Reduction of cholesterol in cholesterol-loaded rats, %* [3] |
| --- | --- | --- | --- | --- | --- | --- |
| CCC=CCC=CCC=CCC=CCC=CCCCC(=O)Nc1c(OC)cc(OC)cc1OC [Compound 1, N-(2,4,6-trimethoxyphenyl)-5,8,11,14,17-eicosapentaenamide] | 49.6 | 0.27 µM | 13.4 µM | – | – | – |
| CCC=CCC=CCC=CCC=CCC=CCCCC(=O)Nc1c(CC)cccc1CC [Compound 9, N-(2,6-diethylphenyl)-5,8,11,14,17-eicosapentaenamide] | 60 | 0.018 µM | 1.08 µM | – | – | – |
| CCC=CCC=CCC=CCC=CCC=CCC=CCCC(=O)Nc1c(C(C)C)cccc1C(C)C [Compound 12, N-(2,6-diisopropylphenyl)-4,7,10,13,16,19-docosahexaenamide] | – | – | 52.7 µM | – | – | 64% |
| CCC=CCC=CCC=CCC=CCC=CCCCC(=O)Nc1c(C)cccc1C [Compound 7, N-(2,6-dimethylphenyl)-5,8,11,14,17-eicosapentaenamide] | 70.8 | 0.06 µM | 4.25 µM | – | – | – |
